Experimental data: patent US20240368096A1 (Enanta Pharmaceuticals, Inc., priority 2022, published 2024)

test system: HBV; experiment: HBV infection in HepG2-NTCP cells (HBeAg AlphaLISA in supernatants); format: cell-based; details: Hepatitis B virus, 192 h; HBV infection of HepG2-NTCP cells; HBeAg in supernatants at day 8 post infection; read-out: Cellular EC50
Experimental: HepG2-NTCP A3 cells were maintained in DMEM media supplemented with GlutaMAX™ 10% fetal bovine serum, 1% penicillin/streptomycin, and 5 μg/mL puromycin at 37° C. in a humidified atmosphere with 5% CO2 in a collagen-coated tissue culture flask.
HepG2-NTCP cells were seeded in 384 well plate containing 16,000 cells/well two days prior to the infection. On the day of infection, compounds were 3-fold serially diluted in DMSO and pre-incubated with HepG2-NTCP cells for two hours before purified HBV addition. HBV infection was carried out at 2000 GE/cell with 4% PEG, and the final concentration of DMSO is 0.5%. On day one post infection, HBV-containing media was aspirated, cells were washed once with PBS and then maintained in 2.5% DMSO containing media for the remainder of the assay.
Supernatants from infected HepG2-NTCP cells were collected at day 8 post infection, and the amount of viral antigen HBeAg was measured by HBeAg AlphaLISA detection kit (PerkinElmer) following the manufacturer's recommended protocol. Irrespective of readout, compound concentrations that reduce viral product accumulation in supernatants by […] relative to DMSO controls (EC50) are reported. EC50 ranges are as follows: A<0.1 μM; B 0.1-1 μM; C>1 μM.

SMILES	EC50 [nM]
CN1C(CC(F)(F)F)CN(c2ccccc2)c2cc(Cl)c(-c3ccc(F)c(C(=O)O)c3)cc2S1(=O)=O (stereo not drawn) [Example 69]	> 1000
CCCCC[C@@H]1CN(c2ccccc2)c2cc(Cl)c(-c3ccc(F)c(C(=O)O)c3)cc2S(=O)(=O)N1C [Example 70]	> 1000
CN1[C@H](CC2CC2)CN(c2ccccc2)c2cc(Cl)c(-c3cncc(C(=O)O)c3)cc2S1(=O)=O [Example 74]	> 1000
CCCCCCCC[C@@H]1CN(c2ccccc2)c2cc(Cl)c(-c3ccc(F)c(C(=O)O)c3)cc2S(=O)(=O)N1C [Example 82, (R)-5-(7-chloro-2-methyl-3-octyl-1,1-dioxido-5-phenyl-2,3,4,5-tetrahydrobenzo[f][1,2,5]thiadiazepin-8-yl)-2-fluorobenzoic acid]	> 1000
CCCCCCCC[C@@H]1CN(c2ccccc2)c2cc(Cl)c(-c3cc(F)c(F)c(C(=O)O)c3)cc2S(=O)(=O)N1C [Example 83]	> 1000
CCCCCCCC[C@@H]1CN(c2ccccc2)c2cc(Cl)c(-c3ccc(C(=O)O)s3)cc2S(=O)(=O)N1C [Example 84]	> 1000
CO[C@@H](C)[C@@H]1CN(c2ccccc2)c2cc(Cl)c(-c3ccc(F)c(C(=O)O)c3)cc2S(=O)(=O)N1C [Example 88, 5-((S)-7-chloro-3-((S)-1-methoxyethyl)-2-methyl-1,1-dioxido-5-phenyl-2,3,4,5-tetrahydrobenzo[f][1,2,5]thiadiazepin-8-yl)-2-fluorobenzoic acid]	> 1000
C[C@H](OCc1ccccc1)[C@@H]1CN(c2ccccc2)c2cc(Cl)c(-c3ccc(F)c(C(=O)O)c3)cc2S(=O)(=O)N1C [Example 90]	100 to 1000
C[C@H](OC(C)(C)C)[C@@H]1CN(c2ccccc2)c2cc(Cl)c(-c3ccc(F)c(C(=O)O)c3)cc2S(=O)(=O)N1C [Example 91]	> 1000
CCO[C@H](C)[C@@H]1CN(c2ccccc2)c2cc(Cl)c(-c3ccc(F)c(C(=O)O)c3)cc2S(=O)(=O)N1C [Example 92]	100 to 1000
CCOC[C@@H]1CN(c2ccccc2)c2cc(Cl)c(-c3ccc(F)c(C(=O)O)c3)cc2S(=O)(=O)N1C [Example 93, (S)-5-(7-chloro-3-(ethoxymethyl)-2-methyl-1,1-dioxido-5-phenyl-2,3,4,5-tetrahydrobenzo[f][1,2,5]thiadiazepin-8-yl)-2-fluorobenzoic acid]	100 to 1000
COC[C@@H]1CN(c2ccccc2)c2cc(Cl)c(-c3ccc(F)c(C(=O)O)c3)cc2S(=O)(=O)N1C [Example 95]	100 to 1000
CC(C)OC[C@@H]1CN(c2ccccc2)c2cc(Cl)c(-c3ccc(F)c(C(=O)O)c3)cc2S(=O)(=O)N1C [Example 96, (S)-5-(7-chloro-3-(isopropoxymethyl)-2-methyl-1,1-dioxido-5-phenyl-2,3,4,5-tetrahydrobenzo[f][1,2,5]thiadiazepin-8-yl)-2-fluorobenzoic acid]	100 to 1000
COCOC[C@@H]1CN(c2ccccc2)c2cc(Cl)c(-c3ccc(F)c(C(=O)O)c3)cc2S(=O)(=O)N1C [Example 97, (S)-5-(7-chloro-3-((methoxymethoxy)methyl)-2-methyl-1,1-dioxido-5-phenyl-2,3,4,5-tetrahydrobenzo[f][1,2,5]thiadiazepin-8-yl)-2-fluorobenzoic acid]	100 to 1000
CN1[C@H](CO)CN(c2ccccc2)c2cc(Cl)c(-c3ccc(F)c(C(=O)O)c3)cc2S1(=O)=O [Example 98, (S)-5-(7-chloro-3-(hydroxymethyl)-2-methyl-1,1-dioxido-5-phenyl-2,3,4,5-tetrahydrobenzo[f][1,2,5]thiadiazepin-8-yl)-2-fluorobenzoic acid]	> 1000
CN1[C@H](CN=[N+]=[N-])CN(c2ccccc2)c2cc(Cl)c(-c3ccc(F)c(C(=O)O)c3)cc2S1(=O)=O [Example 99, (S)-5-(3-(azidomethyl)-7-chloro-2-methyl-1,1-dioxido-5-phenyl-2,3,4,5-tetrahydrobenzo[f][1,2,5]thiadiazepin-8-yl)-2-fluorobenzoic acid]	> 1000
CN1[C@H](COc2ccccc2)CN(c2ccccc2)c2cc(Cl)c(-c3ccc(F)c(C(=O)O)c3)cc2S1(=O)=O [Example 100, (S)-5-(7-chloro-2-methyl-1,1-dioxido-3-(phenoxymethyl)-5-phenyl-2,3,4,5-tetrahydrobenzo[f][1,2,5]thiadiazepin-8-yl)-2-fluorobenzoic acid]	> 1000
CN1[C@H](COC(C)(C)C)CN(c2ccccc2)c2cc(Cl)c(-c3ccc(F)c(C(=O)O)c3)cc2S1(=O)=O [Example 101, (S)-5-(3-(tert-butoxymethyl)-7-chloro-2-methyl-1,1-dioxido-5-phenyl-2,3,4,5-tetrahydrobenzo[f][1,2,5]thiadiazepin-8-yl)-2-fluorobenzoic acid]	100 to 1000
CN1[C@H](COCc2ccccc2)CN(c2ccccc2)c2cc(Cl)c(-c3ccc(F)c(C(=O)O)c3)cc2S1(=O)=O [Example 102]	> 1000

Next, values leading:

EC50 [nM]	SMILES
< 100	CC(C)C[C@@H]1CN(c2ccccc2)c2cc(Cl)c(-c3ccc(F)c(C(=O)O)c3)cc2S(=O)(=O)N1C [Example 59, (R)-5-(7-chloro-3-isobutyl-2-methyl-1,1-dioxido-5-phenyl-2,3,4,5-tetrahydrobenzo[f][1,2,5]thiadiazepin-8-yl)-2-fluorobenzoic acid]
< 100	CC(C)C[C@@H]1CN(c2ccccc2)c2cc(Cl)c(-c3ccc(Cl)c(C(=O)O)c3)cc2S(=O)(=O)N1C [Example 60]
100 to 1000	CC(C)[C@@H]1CN(c2ccccc2)c2cc(Cl)c(-c3ccc(F)c(C(=O)O)c3)cc2S(=O)(=O)N1C [Example 61, (R)-5-(7-chloro-3-isopropyl-2-methyl-1,1-dioxido-5-phenyl-2,3,4,5-tetrahydrobenzo[f][1,2,5]thiadiazepin-8-yl)-2-fluorobenzoic acid]
< 100	CC(C)[C@@H]1CN(c2ccccc2)c2cc(Cl)c(-c3ccc(Cl)c(C(=O)O)c3)cc2S(=O)(=O)N1C [Example 62]
< 100	CC(C)[C@@H]1CN(c2ccccc2)c2cc(Cl)c(-c3cc(F)c(F)c(C(=O)O)c3)cc2S(=O)(=O)N1C [Example 63]
100 to 1000	CN1[C@H](C2CC2)CN(c2ccccc2)c2cc(Cl)c(-c3ccc(F)c(C(=O)O)c3)cc2S1(=O)=O [Example 64, (R)-5-(7-chloro-3-cyclopropyl-2-methyl-1,1-dioxido-5-phenyl-2,3,4,5-tetrahydrobenzo[f][1,2,5]thiadiazepin-8-yl)-2-fluorobenzoic acid]
< 100	CN1[C@H](C2CC2)CN(c2ccccc2)c2cc(Cl)c(-c3ccc(Cl)c(C(=O)O)c3)cc2S1(=O)=O [Example 65]
100 to 1000	CN1[C@H](C2CCCC2)CN(c2ccccc2)c2cc(Cl)c(-c3ccc(F)c(C(=O)O)c3)cc2S1(=O)=O [Example 66]
< 100	CN1[C@H](C2CCCC2)CN(c2ccccc2)c2cc(Cl)c(-c3ccc(Cl)c(C(=O)O)c3)cc2S1(=O)=O [Example 67]
< 100	CC[C@@H](C)[C@@H]1CN(c2ccccc2)c2cc(Cl)c(-c3ccc(F)c(C(=O)O)c3)cc2S(=O)(=O)N1C [Example 68]
100 to 1000	CCCCC1CN(c2ccccc2)c2cc(Cl)c(-c3ccc(F)c(C(=O)O)c3)cc2S(=O)(=O)N1C (stereo not drawn) [Example 71]
< 100	CN1[C@H](CC2CC2)CN(c2ccccc2)c2cc(Cl)c(-c3ccc(F)c(C(=O)O)c3)cc2S1(=O)=O [Example 73]
100 to 1000	CN1[C@H](CC2CCC2)CN(c2ccccc2)c2cc(Cl)c(-c3ccc(F)c(C(=O)O)c3)cc2S1(=O)=O [Example 75]
100 to 1000	CN1[C@H](CC2CCC2)CN(c2ccccc2)c2cc(Cl)c(-c3ccc(Cl)c(C(=O)O)c3)cc2S1(=O)=O [Example 76]
100 to 1000	CN1C(CC2CCCC2)CN(c2ccccc2)c2cc(Cl)c(-c3ccc(F)c(C(=O)O)c3)cc2S1(=O)=O (stereo not drawn) [Example 77]
100 to 1000	CN1C(CC2CCCC2)CN(c2ccccc2)c2cc(Cl)c(-c3ccc(Cl)c(C(=O)O)c3)cc2S1(=O)=O (stereo not drawn) [Example 78]
100 to 1000	CN1C(c2cnn(C)c2)CN(c2ccccc2)c2cc(Cl)c(-c3ccc(F)c(C(=O)O)c3)cc2S1(=O)=O (stereo not drawn) [Example 79]
< 100	CN1[C@H](C2CCC2)CN(c2ccccc2)c2cc(Cl)c(-c3ccc(F)c(C(=O)O)c3)cc2S1(=O)=O [Example 80, (R)-5-(7-chloro-3-cyclobutyl-2-methyl-1,1-dioxido-5-phenyl-2,3,4,5-tetrahydrobenzo[f][1,2,5]thiadiazepin-8-yl)-2-fluorobenzoic acid]
< 100	CN1[C@H](C2CCC2)CN(c2ccccc2)c2cc(Cl)c(-c3ccc(Cl)c(C(=O)O)c3)cc2S1(=O)=O [Example 81]
< 100	CN1[C@H](C(C)(C)C)CN(c2ccccc2)c2cc(Cl)c(-c3ccc(F)c(C(=O)O)c3)cc2S1(=O)=O [Example 85, (R)-5-(3-(tert-butyl)-7-chloro-2-methyl-1,1-dioxido-5-phenyl-2,3,4,5-tetrahydrobenzo[f][1,2,5]thiadiazepin-8-yl)-2-fluorobenzoic acid]
100 to 1000	CN1C(C23CC(C2)C3)CN(c2ccccc2)c2cc(Cl)c(-c3ccc(F)c(C(=O)O)c3)cc2S1(=O)=O (stereo not drawn) [Example 86]
100 to 1000	CN1C(C23CC(C(F)(F)F)(C2)C3)CN(c2ccccc2)c2cc(Cl)c(-c3ccc(F)c(C(=O)O)c3)cc2S1(=O)=O (stereo not drawn) [Example 87]
100 to 1000	CCO[C@@H](C)[C@@H]1CN(c2ccccc2)c2cc(Cl)c(-c3ccc(F)c(C(=O)O)c3)cc2S(=O)(=O)N1C [Example 89]
